This note sets out measurements from patent publication US20070112026A1, “Carbostyril derivatives for accelerating salivation” (priority 2003, published 2007).

Data set [1] has as its system patient with Sjögren's syndrome. Kind of data set: Patient record: earlier treatments of the same Sjögren's syndrome patient. The format is in vivo, human. The settings on record: earlier treatment of the patient of Experiment 4. On the procedure:
Around February 1999, the patient visited a hospital in view of dryness of mouth and difficulty in tearing. Then, they were diagnosed to have Sjögren's syndrome in view of antinuclear antibody: 160 times, anti-SSR-A antibody: 126 times, Gum test: 8 ml, lowered function of salivary gland, ophthalmic Silmer test (right 4 mm, left 3 mm), dry kerato-conjunctivitis. […] Besides, Salivate spray was also applied but it was not effective and discontinued. After moving their home because of marriage, their hospital was change on May 1, 2003. Before the changing the hospital, an ophthalmic drop containing chondroitin sulfate has frequently been used for treating dry conjunctivitis.

For data set [2], the system named is patients with Sjögren's syndrome. Nature of the data set: Effects on xerostomia in patients with Sjögren's syndrome (subjective symptom scores, Saxon Test, overall evaluation). In kind it is in vivo, human. The settings on record: for Salivation amount (Saxon test) / Total scores of subjective symptoms: 100 mg tablet orally three times per day, 21 patients; for Salivation amount (Saxon test): 1.29±1.00 g before administration; for Total scores of subjective symptoms: 9.6±4.1 before administration; for Overall evaluation: "Effective" / Overall evaluation: "Non-effective" / Overall evaluation: "Remarkably effective": of 21 patients. On the procedure:
The effects of the present active compound on xerostomia in patients with Sjögren's syndrome was tested. The test was carried out for 21 patients (age: 27 to 85 years old, all female) who were diagnosed as surely having Sjögren's syndrome on the basis of Revised Diagnosis Standard for Sjögren's syndrome (issued by Ministry of Health, Labour and Welfare in Japan in 1999). Tablet containing 2-(4-chlorobenzoylamino)-3-(2-quinolon-4-yl)propionic acid (100 mg per tablet) was orally administered three times per day immediately after a meal (one tablet for each time) for 8 weeks. i) Evaluation by patients themselves as to subjective symptoms (e.g. feeling of dryness of the mouth, hydromania, pain in the mouth, taste disorder, difficulty in dietary intake, abnormality of saliva) before administration of tablet, after administration of tablet for 4 weeks and 8 weeks, respectively. […] Based on the salivation amount thus measured, the increasing rate of salivation was determined by the following equation: [formula] The effects of the test compound were evaluated based on both of the improvement of subjective symptoms and the salivation amount, which was classified in three degrees as follows. “Remarkably effective: Both of the improved rate of subjective symptoms and the increasing rate of salivation being more than 50%; “Effective”: Either of the improved rate of subjective symptoms or the increasing rate of salivation being more than 50%; “Non-effective”: Neither the improvement of subjective symptoms nor the increasing of salivation being observed. The experimental results were statistically evaluated in accordance with Wilcoxon's rank test.

For data set [3], the system named is patient suffering from mouth dryness accompanying Sjögren's syndrome. Nature of the data set: Case of a patient suffering from mouth dryness accompanying Sjögren's syndrome (Saxon test). The format is in vivo, human. The settings on record: for Subjective symptoms: 300 mg/day started May 29, 2003; for Salivation amount (Saxon test): 300 mg/day started May 29, 2003 (0.89 g at start), one patient. An excerpt:
Effects of the present compound 2-(4-chlorobenzoyl-amino}-3-(2-quinolon-4-yl)propionic acid on a patient suffering from mouth dryness accompanying Sjögren's syndrome:
(1) Patient: A person.
(2) Chief Complaint: Cotton Mouth, Mattering of Eyes.
The symptoms of the mouth dryness were significant dry of toungue and significant lowering of salivaition (0.52 g in Saxon test). No swelling of parotid gland. Eye dryness was Silmer test (right 2 mm, left 1 mm), Rose bengal test (3+). No inflammation of the eye. Examination findings were ESR 17 mm/hr., WBC 5500/μL, RBC 484×10^4/μL, Hgb 13.4 g/dL, T.P. 8.4 g/dL, Alb 4.4 g/dL, AST 17 IU/mL, ALT 9 IU/mL, Amylase 140 IU/L, CK 46 IU/L, Cr 0.69 mg/dL, BUN 14.0 mg/dL, CRP<0.3 mg/dL, ANA 640 folds (speckled pattern), anti-SS-A antibody 126 times, Anti-SS-B antibody, negative, IgG 2270 mg/dL, IgA 368 mg/dL, IgM 132 mg/dL, and immune complex, Ciq solid-phase method, 3.3 (positive). (5) Clinical Course:
Administration of 2-(4-chloro-benzoylamino)-3-(2-quinolon-4-yl)propionic acid (300 mg/day)was started on May 29, 2003. […] 25, 2003 and then the subjective symptoms were improved. The salivation amount more increased to 1.86 g on Jul. 23, 2003 and then the subjective symptoms were also more improved.

Another data set concerns non-anesthetized rats. Kind of data set: Salivation amount in non-anesthetized rats after intragastric administration (esophagus diverticulum collection). The settings on record: saliva collected for 4 hours, average ± standard error. The format is in vivo. The method, then: The effects of the present active compound by intragastric administration in non-anesthetized rats with respect to the salivation were studied as mentioned below. Using non-anesthetized rats, the saliva being swallowed for 4 hours on awaking into the diverticulum placed at the esophagus was collected and the salivation amount (g) was measured. Vehicle (0.5% sodium carboxymethyl cellulose solution) or Rebamipide 10, 30 or 100 mg/kg was intragastrically administered once when the esophagus diverticulum was set, and as a result, the average ± standard error of the salivation amount was 0.88±0.23 g (n=7) in the vehicle-treated group, 0.99±0.21 g (n=8) in the Rebamipide (10 mg/kg)-treated group, 1.37±0.26 g (n=7) in the Rebamipide (30 mg/kg)-treated group, and 1.72±0.40 g (n=8) in the Rebamipide (100 mg/kg)-treated group.

Another data set has as its system anesthetized rats. Nature of the data set: Salivation amount in anesthetized rats after intravenous administration. In kind it is in vivo. The settings on record: for Salivation amount: over 20 minutes, average ± standard error; for Salivation amount, comparison with the vehicle-treated group: vehicle = 100. On the procedure: The effects of the present active compound on salivation in anesthetized rats were studied as mentioned below. Models for studying salivation were prepared according to the method of Masunaga, et al. (Masunaga, H., et al., Long-lasting salivation induced by a novel Muscarinic receptor agonist SNI-201 in rats and dogs. Eur. J. Pharmacol., 339: 1-9, 1997). Namely, rats had been fasted from the day before the experiment except that the intake of water was freely allowed, and the rats were anesthetized with Nembutal (=pentobarbital sodium). The rats were put down on the back, and the neck was subjected to midline incision. An ATOM anionic fluid suction catheter of 6Fr. was inserted to the air tube in order to keep the airway clear. Next, a polyethylene tube (SP55 Natsume) containing a solution of 10 U/ml heparin in physiological saline was inserted into the […] for administration of a medicament. A 0.03 mg/ml or 0.1 mg/ml solution of the test compound (2-(4-Chlorobenzoylamino)-3-(2-quinolon-4-yl)-propionic acid; general name: Rebamipide) in 2% aqueous sodium hydrogen carbonate solution, and a vehicle (2% aqueous sodium hydrogen carbonate solution) as a control solution were used, and the test compound solution and the control solution in an amount of 1 mL/kg were respectively administered intravenously via the polyethylene tube inserted into the […]. Then, the salivation amount was measured every 10 minutes for 20 minutes with using cotton swabs, and the salivation amount per one minute was calculated from the total salivation amount for this period. In this measurement, the salivation amount was measured in such a way that the dried cotton swab (the weight thereof was previously measured) was inserted into the mouth of rat, and the swab was exchanged with a new dried one in every ten minutes, and the total salivation amount was calculated from the difference in the weight of the swab between before and after inserting into the mouth. The average salivation amount was calculated as measured in the vehicle-treated group (5 animals), the test compound (0.03 mg/kg)-treated group (5 animals) and the test compound (0.1 mg/kg)-treated group (4 animals), and the percentage of the average salivation amount in the test compound-treated groups against that of the vehicle-treated group was calculated.

In the case of `C[C@@H]1O[C@@]2(CS1)CN1CCC2CC1.Cl` [Sebimerine hydrochloride], the “Side effects leading to stop of administration” value in data set [1] is “abdominal discomfort and stomach ache”.
Consider `O=C(NC(Cc1cc(=O)[nH]c2ccccc12)C(=O)O)c1ccc(Cl)cc1` (centres unmarked) [Rebamipide, 2-(4-Chlorobenzoylamino)-3-(2-quinolon-4-yl)-propionic acid], for which the Effectiveness in data set [2] (after 4 weeks) is 52.4%; in data set [2] (after 8 weeks), 61.9%. For the same compound, the “Salivation amount (Saxon test)” value came out at 1.95 ± 1.21 g in data set [2] (after 4 weeks); 1.93 ± 1.14 g in data set [2] (after 8 weeks); 1.86 g in data set [3] (Jul. 23, 2003); 1.55 g in data set [3] (Jun. 25, 2003). Moreover, the entries for the “Total scores of subjective symptoms” value in data set [2] (after 4 weeks) and in data set [2] (after 8 weeks) were 6.6±3.2 and 5.2±2.6, respectively. Moreover, the “Overall evaluation: "Effective"” value amounted to 9 patients in data set [2] (after 4 weeks) and 7 patients in data set [2] (after 8 weeks). Further, the “Overall evaluation: "Non-effective"” value came to 10 patients in data set [2] (after 4 weeks) and 8 patients in data set [2] (after 8 weeks). Besides, the “Overall evaluation: "Remarkably effective"” value in data set [2] (after 4 weeks) was 2 patients; in data set [2] (after 8 weeks), 6 patients. For the same compound, the Subjective symptoms result in data set [3] (Jul. 23, 2003) was “more improved”; in data set [3] (Jun. 25, 2003), “improved”. Also, the Salivation amount with non-anesthetized rats (10 mg/kg intragastric once, n=8) came to 0.99 ± 0.21 g; in the data set with non-anesthetized rats (30 mg/kg intragastric once, n=7), 1.37 ± 0.26 g; with non-anesthetized rats (100 mg/kg intragastric once, n=8), 1.72 ± 0.40 g; in the data set with anesthetized rats (0.03 mg/kg intravenous, n=5, listed as Test compound), 0.262 ± 0.084 mg/min; in the data set with anesthetized rats (0.03 mg/kg intravenous, n=5, listed as test compound), 0.262 ± 0.084 mg/min; in the data set on anesthetized rats (0.1 mg/kg intravenous, n=4, listed as Test compound), 0.305 ± 0.097 mg/min. In addition, in the data set with anesthetized rats (0.1 mg/kg intravenous, n=4, listed as test compound), the Salivation amount was 0.305 ± 0.097 mg/min. Moreover, the “Salivation amount, comparison with the vehicle-treated group” value was 205% with anesthetized rats (0.03 mg/kg intravenous) and 239% in the data set on anesthetized rats (0.1 mg/kg intravenous).
